This test has as its target T1, Nutrient-deprivation autophagy factor-1 (NAF-1, miner1) (Homo sapiens, UniProt Q8N5K1).
T1 sequence (Q8N5K1 57-135 limits assumed): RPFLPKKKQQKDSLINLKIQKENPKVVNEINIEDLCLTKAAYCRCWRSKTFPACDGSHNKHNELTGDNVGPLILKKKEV
Description: scintillation proximity assay, [3H]rosiglitazone displacement. The class given is binding. On the technique in general: SPA uses beads or plates that emit light when radiolabelled molecules are held near them.

Broadly, the IC50 is the concentration that gives 50% inhibition. A higher IC50 goes with a need for much substance. NL-1 came in with an IC50 of 29.8 µM.

For the origin of these results see publication PMC6542280 (Bioorganic & medicinal chemistry letters, 2019).
